Data as given in PMC8263017, “Cryo-EM Determination of Eravacycline-Bound Structures of the Ribosome and the Multidrug Efflux Pump AdeJ of Acinetobacter baumannii” (mBio, 2021).

Assays:
[1] = biological target: T1, AdeJ multidrug efflux pump (Acinetobacter baumannii, UniProt Q2FD94); assay: single-particle cryo-EM structure ([…] A); details: 10 uM AdeJ-nanodisc with 20 uM eravacycline (dihydrochloride), 1 h; distal drug-binding site of the binding-state protomer, one molecule per trimer; no Mg2+ seen at the site
T1 construct: full-length, 1,058 residues (1,046 built per protomer); N-terminal 6xHis tag (pET15b); expressed in E. coli BL21(DE3) delta-acrB; DDM-purified, reconstituted in MSP 1E3D1 lipidic nanodiscs; homotrimer

[2] = biological target: Acinetobacter drug efflux (Ade)J multidrug efflux pump of A. baumannii Ab0057 (Acinetobacter baumannii Ab0057) (UniProt Q2FD94); assay: cryo-EM structure; single-particle cryo-EM of 10 μM AdeJ in lipidic nanodiscs, incubated with 20 μM eravacycline for 1 h; two classes in one sample (apo-AdeJ trimer and AdeJ-Era trimer); 20 mM Tris-HCl pH 7.5, 100 mM NaCl

| Molecule | single-particle cryo-EM structure (2.86 A) [1] | stoichiometry N [2] |
| --- | --- | --- |
| CN(C)[C@@H]1C(=O)C(C(N)=O)=C(O)[C@@]2(O)C(=O)C3=C(O)c4c(O)c(NC(=O)CN5CCCC5)cc(F)c4C[C@H]3C[C@@H]12 [eravacycline] | large density corresponds to the bound Era drug located at the distal multidrug-binding site |  |
| Acinetobacter drug efflux (Ade)J multidrug efflux pump of A. baumannii Ab0057 (from UniProt Q2FD94 1-1058) (natural protein) |  | 3 |
